Test results from patent US20240116985A1, “STAPLED PEPTIDES AND METHODS THEREOF” (priority 2020, published 2024).
In brackets after ≈: the same amount, converted by molar mass. Read-outs that look alike come from different tables or passages of the source.

Experiments:
[1] = biological target: T1, full-length beta-Catenin (Uniprot ID P35222) (Homo sapiens, UniProt P35222); assay: Fluorescence polarization IC50 (beta-catenin / 5FAM-TCF4 10-53 competition); format: binding
T1 construct: 10 nM full-length beta-Catenin (Uniprot ID P35222)
T1 sequence (P35222 1-781): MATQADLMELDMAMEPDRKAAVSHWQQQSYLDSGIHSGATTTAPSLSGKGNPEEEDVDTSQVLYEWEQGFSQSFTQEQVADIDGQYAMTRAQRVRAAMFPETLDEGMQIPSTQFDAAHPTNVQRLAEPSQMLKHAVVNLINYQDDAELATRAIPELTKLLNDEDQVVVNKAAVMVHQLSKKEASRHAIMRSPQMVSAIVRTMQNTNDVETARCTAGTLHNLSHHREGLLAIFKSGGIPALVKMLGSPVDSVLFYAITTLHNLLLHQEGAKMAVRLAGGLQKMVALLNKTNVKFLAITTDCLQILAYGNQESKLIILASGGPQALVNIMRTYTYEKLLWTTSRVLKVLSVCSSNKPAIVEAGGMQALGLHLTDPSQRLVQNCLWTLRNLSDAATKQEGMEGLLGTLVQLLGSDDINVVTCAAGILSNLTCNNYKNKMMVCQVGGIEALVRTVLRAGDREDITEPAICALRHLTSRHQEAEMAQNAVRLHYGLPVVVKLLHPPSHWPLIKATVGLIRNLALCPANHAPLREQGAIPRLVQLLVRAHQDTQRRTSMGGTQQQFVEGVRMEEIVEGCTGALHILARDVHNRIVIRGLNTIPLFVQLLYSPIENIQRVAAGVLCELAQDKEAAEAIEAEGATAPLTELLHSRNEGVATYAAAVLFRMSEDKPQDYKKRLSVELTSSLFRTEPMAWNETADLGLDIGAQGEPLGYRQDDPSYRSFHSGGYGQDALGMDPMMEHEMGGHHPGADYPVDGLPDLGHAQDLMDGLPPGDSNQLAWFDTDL

[2] = biological target: T2, beta-catenin/TCF4 engagement (Homo sapiens, UniProt P35222); assay: Nano-BRET target engagement assay (B-cat-Halo & TCF4-Luc in HEK293 cells); format: cell-based; conditions: for inhibition at 10 µM: read-out: NanoBRET % inh @ 10 uM
T2 construct: expressed in transfected cells; host or cells: HEK293
T2 sequence (P35222 1-781): T1 sequence (P35222 1-781)

[3] = CHI Log D procedure; format: physicochemical; conditions: for chromatographic logD: pH 7.4, CHI Log D; for CHI Log D: pH 7.4
[4] = Solubility in PBS; format: physicochemical
Method in brief: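 The PBS solution was ultracentrifuged and the supernatant analyzed by HPLC. Its peak area was divided by that of a 50 μM peptide DMSO reference injection and multiplied by 50 uM to give solubility.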

[5] = fluorescence polarization, read-out: beta-Catenin FP IC50
[6] = absolute IC50, read-out: NanoBRET Abs IC50

| SMILES | IC50 ([1]; read-out: beta-Catenin FP IC50) | IC50 ([2]; read-out: NanoBRET Abs IC50) | chromatographic logD [3] | Solubility [4] | Solubility ([4]; Solubility (uM)) | IC50 ([1]; read-out: FP EC50) | CHI Log D [3] | inhibition at 10 µM ([2]; HEK293, 10 uM) | IC50 ([2]; read-out: NanoBRET IC50) | IC50 [1, 5] | IC50 [2, 6] | inhibition at 10 µM ([2]; HEK293, @ 10 uM) |
| --- | --- | --- | --- | --- | --- | --- | --- | --- | --- | --- | --- | --- |
| CC(=O)N1CCC[C@]12CC=CCCCC1(CCCC=CCCCCOC(=O)N3CC[C@@](C(=O)N[C@@H](Cc4ccsc4)C(=O)N[C@@H](Cc4csc5ccccc45)C(=O)N[C@@H](CCC(N)=O)C(N)=O)(C3)NC(=O)[C@H](CC(N)=O)NC(=O)[C@H](Cc3ccccc3)NC(=O)[C@H](C)NC(=O)[C@H](C)NC(=O)[C@H](CC(=O)O)NC(=O)[C@H](CC(=O)O)NC1=O)NC(=O)[C@H](CC(C)(C)C)NC(=O)[C@H](CC(=O)O)NC2=O (stereo partly drawn) [I-767, Ac-PL3-Asp-Npg-B5-Asp-Asp-Ala-Ala-Phe-Asn-PyrS3-3Thi-BztA-Gln-NH2] | 12 nM | 37200 nM |  | 50 µM (≈ 96.6 µg/mL) |  | 12 nM | 2.004 |  |  |  |  |  |
| CC(=O)N1CCC[C@]12CC=CCCCC1(CCCC=CCCCOC(=O)N3CC[C@@](C(=O)N[C@@H](Cc4ccsc4)C(=O)N[C@@H](Cc4csc5ccccc45)C(=O)N[C@@H](CCC(N)=O)C(=O)N[C@@H](CCCCN)C(N)=O)(C3)NC(=O)[C@H](CC(N)=O)NC(=O)[C@H](Cc3ccccc3)NC(=O)[C@H](C)NC(=O)[C@H](C)NC(=O)[C@H](CC(=O)O)NC(=O)[C@H](CC(=O)O)NC1=O)NC(=O)[C@H](CC(C)(C)C)NC(=O)[C@H](CC(=O)O)NC2=O (stereo partly drawn) [I-939, Ac-PL3-Asp-Npg-B5-Asp-Asp-Ala-Ala-Phe-Asn-PyrS2-3Thi-BztA-Gln-Lys-NH2] | 8 nM | 25100 nM | 1.79 |  | 15 µM (≈ 30.7 µg/mL) |  |  |  | 18000 nM |  |  |  |
| CC(=O)N1CCC[C@]12CC=CCCCC1(CCCC=CCCCCCC[C@@](C)(C(=O)N[C@@H](Cc3ccccc3Cl)C(=O)N[C@@H](Cc3csc4ccccc34)C(=O)N[C@@H](CCC(N)=O)C(N)=O)NC(=O)[C@H](CC(C)C)NC(=O)[C@H](Cc3ccccc3)NC(=O)[C@H](C)NC(=O)[C@H](C)NC(=O)[C@H](CCC(=O)O)NC(=O)[C@H](CC(=O)O)NC1=O)NC(=O)[C@H](CC(C)(C)C)NC(=O)[C@H](CC(=O)O)NC2=O (stereo partly drawn) [I-1096, Ac-PL3-Asp-Npg-B5-Asp-Glu-Ala-Ala-Phe-Leu-S8-2C1F-BztA-Gln-NH2] | 17 nM | 8600 nM | 3.18 | 10 µM (≈ 19.2 µg/mL) |  |  |  |  |  |  |  |  |
| CC(=O)N1CCC[C@]12CC=CCCCC1(CCCC=CCCCCCC[C@@](C)(C(=O)N[C@@H](Cc3ccsc3)C(=O)N[C@@H](Cc3csc4ccccc34)C(=O)N[C@@H](CCC(N)=O)C(N)=O)NC(=O)[C@H](CC(N)=O)NC(=O)[C@H](Cc3ccccc3)NC(=O)[C@H](C)NC(=O)[C@H](C)NC(=O)[C@H](CCC(=O)O)NC(=O)[C@H](CC(=O)O)NC1=O)NC(=O)[C@H](CC(C)(C)C)NC(=O)[C@H](CC(=O)O)NC2=O (stereo partly drawn) [I-683, Ac-PL3-Asp-Npg-B5-Asp-Glu-Ala-Ala-Phe-Asn-S8-3Thi-BztA-Gln-NH2] |  |  |  | 37 µM (≈ 69.9 µg/mL) |  | 19 nM | 2.44 |  |  | 19 nM | 6700 nM |  |
| CC(=O)N1CCC[C@]12CC=CCCCC1(CCCC=CCCCOC(=O)N3CC[C@@](C(=O)N[C@@H](Cc4ccccc4Cl)C(=O)N[C@@H](Cc4csc5ccccc45)C(=O)N[C@@H](CCC(N)=O)C(N)=O)(C3)NC(=O)[C@H](CC(C)C)NC(=O)[C@H](Cc3cccc(C(F)(F)F)c3)NC(=O)[C@H](C)NC(=O)[C@H](C)NC(=O)[C@H](CC(=O)O)NC(=O)[C@H](CC(=O)O)NC1=O)NC(=O)[C@H](CC(C)(C)C)NC(=O)[C@H](CC(=O)O)NC2=O (stereo partly drawn) [I-1122, Ac-PL3-Asp-Npg-B5-Asp-Asp-Ala-Ala-3F3MeF-Leu-PyrS2-2C1F-BztA-Gln-NH2] | 34 nM | 12300 nM | 2.41 |  | 14 µM (≈ 28.2 µg/mL) |  |  |  |  |  |  |  |

Results, then the compound that gave them:

| IC50 ([1]; read-out: beta-Catenin FP IC50) | IC50 ([2]; read-out: NanoBRET Abs IC50) | chromatographic logD [3] | Solubility [4] | Solubility ([4]; Solubility (uM)) | IC50 ([1]; read-out: FP EC50) | CHI Log D [3] | inhibition at 10 µM ([2]; HEK293, 10 uM) | IC50 ([2]; read-out: NanoBRET IC50) | IC50 [1, 5] | IC50 [2, 6] | inhibition at 10 µM ([2]; HEK293, @ 10 uM) | SMILES |
| --- | --- | --- | --- | --- | --- | --- | --- | --- | --- | --- | --- | --- |
| 28 nM | > 20000 nM | 2.51 | 10 µM (≈ 19.3 µg/mL) |  |  |  |  |  |  |  |  | CC(=O)N1CCC[C@]12CC=CCCCC1(CCCC=CCCCOC(=O)N3CC[C@@](C(=O)N[C@@H](Cc4ccsc4)C(=O)N[C@@H](Cc4csc5ccccc45)C(=O)N[C@@H](Cc4c[nH]cn4)C(N)=O)(C3)NC(=O)[C@H](CC(N)=O)NC(=O)[C@H](Cc3ccccc3)NC(=O)[C@H](C)NC(=O)[C@H](C)NC(=O)[C@H](CC(C)C)NC(=O)[C@H](CC(=O)O)NC1=O)NC(=O)[C@H](CC(C)(C)C)NC(=O)[C@H](CC(=O)O)NC2=O (stereo partly drawn) [I-847, Ac-PL3-Asp-Npg-B5-Asp-Leu-Ala-Ala-Phe-Asn-PyrS2-3Thi-BztA-His-NH2] |
| 27 nM | 11400 nM | 3.04 |  | 33 µM (≈ 62 µg/mL) |  |  |  |  |  |  |  | CC(=O)N1CCC[C@]12CC=CCCCC1(CCCC=CCCCCCC[C@@](C)(C(=O)N[C@@H](Cc3ccccc3Cl)C(=O)N[C@@H](Cc3csc4ccccc34)C(=O)N[C@H](C(N)=O)[C@@H](C)O)NC(=O)[C@H]([C@@H](C)O)NC(=O)[C@H](Cc3ccccc3)NC(=O)[C@H](C)NC(=O)[C@H](C)NC(=O)[C@H](CCC(=O)O)NC(=O)[C@H](CC(=O)O)NC1=O)NC(=O)[C@H](CC(C)(C)C)NC(=O)[C@H](CC(=O)O)NC2=O (stereo partly drawn) [I-1091, Ac-PL3-Asp-Npg-B5-Asp-Glu-Ala-Ala-Phe-Thr-S8-2C1F-BztA-Thr-NH2] |
| 5 nM | 18300 nM | 2.09 |  | 32 µM (≈ 63.9 µg/mL) |  |  | 37.5% | > 10000 nM |  |  |  | CC(=O)N1CCC[C@]12CC=CCCCC1(CCCC=CCCCOC(=O)N3CC[C@@](C(=O)N[C@@H](Cc4ccsc4)C(=O)N[C@@H](Cc4csc5ccccc45)C(=O)N[C@@H](Cc4c[nH]cn4)C(=O)N[C@H](C)C(N)=O)(C3)NC(=O)[C@H](CC(N)=O)NC(=O)[C@H](Cc3ccccc3)NC(=O)[C@H](C)NC(=O)[C@H](C)NC(=O)[C@H](CC(=O)O)NC(=O)[C@H](CC(=O)O)NC1=O)NC(=O)[C@H](CC(C)(C)C)NC(=O)[C@H](CC(=O)O)NC2=O (stereo partly drawn) [I-823, Ac-PL3-Asp-Npg-B5-Asp-Asp-Ala-Ala-Phe-Asn-PyrS2-3Thi-BztA-His-dAla-NH2] |
|  |  |  | 48 µM (≈ 87.7 µg/mL) |  | 43 nM | 2.441 |  |  | 43 nM | 7400 nM |  | CC(=O)N1CCC[C@]12CC=CCCCC1(CCCC=CCCCCCC[C@@](C)(C(=O)N[C@@H](Cc3ccccc3)C(=O)N[C@@H](Cc3csc4ccccc34)C(=O)N[C@@H](CO)C(N)=O)NC(=O)[C@H](CC(N)=O)NC(=O)[C@H](Cc3ccccc3)NC(=O)[C@H](C)NC(=O)[C@H](C)NC(=O)[C@H](CCC(=O)O)NC(=O)[C@H](CC(=O)O)NC1=O)NC(=O)[C@H](CC(C)C)NC(=O)[C@H](CC(=O)O)NC2=O (stereo partly drawn) [I-750, Ac-PL3-Asp-Leu-B5-Asp-Glu-Ala-Ala-Phe-Asn-S8-Phe-BztA-Ser-NH2] |
|  |  | 2.39 | 50 µM (≈ 94.2 µg/mL) |  |  |  |  |  | 30 nM |  | 55.1% | CC[C@H](C)[C@@H]1NC(=O)[C@H](CC(=O)O)NC(=O)[C@]2(CC=CCCCC3(CCCC=CCCCCCC[C@@](C)(C(=O)N[C@@H](Cc4ccccc4)C(=O)N[C@@H](Cc4csc5ccccc45)C(=O)N[C@@H](CCC(N)=O)C(N)=O)NC(=O)[C@H](CCC(N)=O)NC(=O)[C@H](Cc4ccccc4)NC(=O)[C@H](C)NC(=O)[C@H](C)NC(=O)[C@H](CCC(=O)O)NC(=O)[C@H](CC(=O)O)NC3=O)NC1=O)CCCN2C(C)=O (stereo partly drawn) [I-407, Ac-PL3-Asp-Ile-B5-Asp-Glu-Ala-Ala-Phe-Gln-S8-Phe-BztA-Gln-NH2] |
